{"source": "BindingDB's records for doi:10.1021/acs.jmedchem.6b01851", "about": "(Amgen, 2017)", "data": [{"target": "Sodium channel protein type 5 subunit alpha (Homo sapiens, UniProt Q14524)", "sequence (Q14524 whole entry)": "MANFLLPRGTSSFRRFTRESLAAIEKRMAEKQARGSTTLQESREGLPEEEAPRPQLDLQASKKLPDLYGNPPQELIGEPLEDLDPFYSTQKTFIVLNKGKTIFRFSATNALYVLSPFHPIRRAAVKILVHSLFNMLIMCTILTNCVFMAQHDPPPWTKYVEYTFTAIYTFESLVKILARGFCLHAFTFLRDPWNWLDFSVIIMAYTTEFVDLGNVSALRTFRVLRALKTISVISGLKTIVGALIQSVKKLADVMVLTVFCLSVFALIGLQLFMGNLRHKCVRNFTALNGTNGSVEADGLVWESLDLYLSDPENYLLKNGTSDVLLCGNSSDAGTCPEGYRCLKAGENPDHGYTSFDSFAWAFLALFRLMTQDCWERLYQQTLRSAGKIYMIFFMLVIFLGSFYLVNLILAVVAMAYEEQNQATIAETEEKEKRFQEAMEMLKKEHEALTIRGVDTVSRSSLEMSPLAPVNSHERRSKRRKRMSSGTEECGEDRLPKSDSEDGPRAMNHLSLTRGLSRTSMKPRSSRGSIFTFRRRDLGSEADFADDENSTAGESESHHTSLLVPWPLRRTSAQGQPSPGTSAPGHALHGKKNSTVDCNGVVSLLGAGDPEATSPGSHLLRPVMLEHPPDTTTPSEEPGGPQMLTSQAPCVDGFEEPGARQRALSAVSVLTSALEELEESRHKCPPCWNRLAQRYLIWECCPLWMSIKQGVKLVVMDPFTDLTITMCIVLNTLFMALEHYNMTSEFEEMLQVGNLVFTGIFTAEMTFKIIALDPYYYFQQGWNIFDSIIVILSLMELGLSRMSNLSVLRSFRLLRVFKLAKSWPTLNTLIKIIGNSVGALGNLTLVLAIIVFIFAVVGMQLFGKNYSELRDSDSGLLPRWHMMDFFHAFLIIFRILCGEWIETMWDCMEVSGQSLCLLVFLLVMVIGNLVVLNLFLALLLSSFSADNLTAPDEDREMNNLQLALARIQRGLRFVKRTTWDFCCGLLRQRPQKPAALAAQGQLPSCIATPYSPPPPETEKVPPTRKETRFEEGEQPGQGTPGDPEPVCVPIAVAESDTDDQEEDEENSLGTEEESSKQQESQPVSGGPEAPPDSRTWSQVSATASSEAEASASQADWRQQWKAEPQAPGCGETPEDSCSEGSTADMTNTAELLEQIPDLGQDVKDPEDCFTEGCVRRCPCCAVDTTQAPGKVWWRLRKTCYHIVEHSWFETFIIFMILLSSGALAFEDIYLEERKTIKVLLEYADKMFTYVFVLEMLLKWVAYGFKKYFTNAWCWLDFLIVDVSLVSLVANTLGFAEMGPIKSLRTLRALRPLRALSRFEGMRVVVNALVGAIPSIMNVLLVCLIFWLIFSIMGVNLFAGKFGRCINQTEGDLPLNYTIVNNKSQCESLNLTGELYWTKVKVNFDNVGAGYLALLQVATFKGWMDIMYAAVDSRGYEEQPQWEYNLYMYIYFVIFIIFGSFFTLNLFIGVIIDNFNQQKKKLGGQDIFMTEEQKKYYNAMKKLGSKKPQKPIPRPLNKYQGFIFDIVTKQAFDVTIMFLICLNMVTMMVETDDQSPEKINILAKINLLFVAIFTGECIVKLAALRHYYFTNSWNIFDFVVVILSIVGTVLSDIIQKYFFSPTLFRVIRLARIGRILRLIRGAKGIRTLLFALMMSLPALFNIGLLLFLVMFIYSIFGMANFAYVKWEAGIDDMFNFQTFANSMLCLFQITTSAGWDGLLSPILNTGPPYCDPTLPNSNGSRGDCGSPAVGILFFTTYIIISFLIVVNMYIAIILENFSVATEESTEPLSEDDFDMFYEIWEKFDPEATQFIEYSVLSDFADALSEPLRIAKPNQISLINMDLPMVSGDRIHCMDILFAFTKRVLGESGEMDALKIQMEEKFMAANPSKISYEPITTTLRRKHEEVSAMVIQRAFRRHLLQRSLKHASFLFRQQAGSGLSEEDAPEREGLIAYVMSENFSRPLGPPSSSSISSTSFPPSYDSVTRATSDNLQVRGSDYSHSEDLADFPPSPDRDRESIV", "assay": "Inhibition of human Nav1.5 expressed in HEK293 cells assessed as reduction in peak inward current by ionworks quattro electrophysiology assay", "units": {"IC50": "µM"}, "values": [{"smiles": "COc1cc(-c2cccc(F)c2)c(Cl)cc1-c1ncc(O)c2cc(S(=O)(=O)Nc3ccon3)ccc12", "note": "[1-(2-chloro-3'-fluoro-5-methoxy-4-biphenylyl)-4-hydroxy-N-3-isoxazolyl-6-isoquinolinesulfonamide]", "IC50": "> 10"}, {"smiles": "COc1cc(-c2cccc(F)c2)c(Cl)cc1-c1nccc2cc(S(=O)(=O)Nc3ncon3)ccc12", "note": "[1-(2-chloro-3'-fluoro-5-methoxy-4-biphenylyl)-N-1,2,4-oxadiazol-3-yl-6-isoquinolinesulfonamide]", "IC50": "> 10"}, {"smiles": "COc1cc(-c2cccc(F)c2)c(Cl)cc1-c1nn(C)c(=O)c2cc(S(=O)(=O)Nc3ccon3)ccc12", "note": "[1-(2-chloro-3'-fluoro-5-methoxy-4-biphenylyl)-N-3-isoxazolyl-3-methyl-4-oxo-3,4-dihydro-6-phthalazinesulfonamide]", "IC50": "> 10"}, {"smiles": "COc1cc(-c2cccc(F)c2)c(Cl)cc1-c1nccc2cc(S(=O)(=O)Nc3cccnn3)ccc12", "note": "[1-(2-chloro-3'-fluoro-5-methoxy-4-biphenylyl)-N-3-pyridazinyl-6-isoquinolinesulfonamide]", "IC50": "> 10"}, {"smiles": "COc1cc(-c2cccc(Cl)c2)c(F)cc1-c1nccc2cc(S(=O)(=O)Nc3ccon3)ccc12", "note": "[1-(3'-chloro-2-fluoro-5-methoxy-4-biphenylyl)-N-3-isoxazolyl-6-isoquinolinesulfonamide]", "IC50": "> 10"}, {"smiles": "COc1cc(-c2cccc(F)c2)c(Cl)cc1-c1ncnc2cc(S(=O)(=O)Nc3ccon3)ccc12", "note": "[4-(2-chloro-3'-fluoro-5-methoxy-4-biphenylyl)-N-3-isoxazolyl-7-quinazolinesulfonamide]", "IC50": "> 10"}]}]}
